Measured values reported in patent US20230233695A1, “MITHRAMYCIN A NANOPARTICLES FOR CANCER TREATMENT” (priority 2021, published 2023).

Tests used:
A673 = assay: XTT cell viability assay, A673; type: cell-based; settings: Homo sapiens, A673, 72 h, read-out: Viability IC50
Experimental: Cell viability assays. For viability assays, four EWS:Fli1 fusion tumor cell lines (RD-ES, SK-ES-1, A673, and TC-71), one human embryonic kidney cell line (293.T), one ES tumor cell line with ERG fusion (CHLA-25), one fetal kidney cell line (HEK293.T), one hepatoblastoma cell line (HepG2), one chronic myeloid leukemia (MEG-01), and one acute monocytic leukemia (THP-1) cell line were plated at 5000 cells/well in 100 μL growth media in 96-well plates. After overnight incubation, 50 μL of growth media containing mithramycin A (MithA) (Cayman Chemical, Ann Arbor, Mi. Item Number 11434) or boronic acid-conjugated nano-MithA (MANP) (0.12 nM to 500 nM, final) or dimethyl sulfoxide (DMSO, 0.01% v/v) vehicle was added to the wells, and cell viability assays were performed 72 hours later. The cells were incubated with the activated-XTT solution (mixture of 2% final concentration of activation reagent with the XTT reagent) from ATCC (Catalog Number 30-1011K, XTT Cell Proliferation Assay Kit) for 3 hours prior to recording absorbance. The cell viability was determined by measuring the absorbance wavelength at 475 nm and reference wavelength at 650 nm on an Infinite M200 plate reader (Tecan Group, Ltd. Mannedorf, Switzerland). […]

Rad51 = assay: Western blotting, Rad51 protein expression; type: cell-based; settings: 10 nM, 24 hours
Experimental: Western Blotting. Expression Western blotting was performed to assess the expression of NR0B1 (EWS:Fli1 target gene) and Rad 51 (DNA homologous recombination repair HRR) at protein level as provisory described in Lin et al 2021. Briefly, cells were grown to ˜70% confluence and exposed to 10 nM of MithA/MANP (final concentration) or DMSO, (0.01% v/v) vehicle and blank polymer for 24 hours. Lysates were collected in cold RIPA lysis buffer supplemented with 1×HALT protease/phosphatase inhibitor cocktail (Thermo Scientific) and clarified by centrifugation. Protein concentration of the supernatant was determined by BCA assay (Thermo Scientific), and then diluted in 4× loading buffer (Licor Inc., Lincoln, Nebr.) containing 1× NuPAGE reducing agent (Life Technologies). Prior to electrophoresis, samples were denatured by incubating at 70° C. for 10 minutes. Samples were then resolved (25 μg/lane) on 4-20% gradient SDS-PAGE gels and transferred to low-fluorescence PVDF membranes (Bio-Rad Inc., Hercules Calif.). Transfer efficiency and equivalence of total protein load was assessed using Revert 700 Total Protein Stain kits (Licor Inc). Membranes were then washed, blocked in Odyssey Blocking Buffer (PBS) (Licor Inc), and incubated with primary antibodies (Table S4.3 above) overnight at 4° C. diluted in blocking buffer.

[1] = tested on: TC-71 (EWS:Fli1+) xenograft tumor; settings: 1 mg/kg, five i.v. injections on alternating days
Experimental: In vivo anti-tumor efficacy. […] On alternating days following inoculation, body weight was recorded, and tumor volume was measured using digital calipers. As each mouse achieved a measurable tumor volume of 200 mm^3, they were randomly allocated saline control vehicle, blank polymer (nano-formulation without MithA conjugation), 1 mg/kg MithA, or 1 mg/kg MANP (1 mg/kg eq. MithA) treatment groups until n=10/group was reached. Mice received 5 intravenous injections of the designated treatment via tail vein, given on alternating day schedule (e.g. M-W-F-Su-Tu). After treatment, tumors were allowed to grow to 1.5 cm^3, at which point the mice were euthanized by CO2 inhalation (FIG. 4.1.). The tumor volume was calculated by the equation: Tumor volume=(L×W^2)/2, in which L and W are the longest and shortest in tumor diameters (mm), respectively. Survival duration was calculated as the number of days for tumor volume to increase from 200 to 1500 mm^3.
Statistical analysis. Microsoft Excel was used to organize data and obtain descriptive statistics (mean and standard deviation). […] For Western blot, tumor-bearing xenograft, and toxicity studies, one-way ANOVA with Bonferroni correction and multiple comparisons were performed using Prism 9. […] For xenograft studies, survival data were used to construct Kaplan-Meier plots and statistical significance of differences between treatment groups (n=10-11/group) was determined by the log-rank test. Differences were accepted as statistically significant when the p-value was ≤0.05.

Female C57BL/6J mice = assay: In vivo toxicity of MithA and MANP: body weight, death, morbidity
Experimental: In vivo toxicity of MithA and MANP. Cohorts of n=6-7 C57BL/6J females, 8-10 wko were randomized to receive either intravenous or intraperitoneal administration of saline control vehicle, blank polymer, MithA, or MANP as described in TABLES 2A and 2B. Body weight loss exceeding 20%, death, morbidity, changes in behavior, and any other sign of local or systemic toxicity were recorded.

[2] = single i.v. 4 mg/kg, within 48 hours

CO[C@H](C(=O)[C@@H](O)[C@@H](C)O)[C@@H]1Cc2cc3cc(O[C@H]4C[C@@H](O[C@H]5C[C@@H](O)[C@H](O)[C@@H](C)O5)[C@H](O)[C@@H](C)O4)c(C)c(O)c3c(O)c2C(=O)[C@H]1O[C@H]1C[C@@H](O[C@H]2C[C@@H](O[C@H]3C[C@](C)(O)[C@H](O)[C@@H](C)O3)[C@@H](O)[C@@H](C)O2)[C@H](O)[C@@H](C)O1 [MithA, (2S,3S)-2-[(2S,4R,5R,6R)-4-[(2S,4R,5S,6R)-4-[(2S,4S,5R,6R)-4,5-dihydroxy-4,6-dimethyloxan-2-yl]oxy-5-hydroxy-6-methyloxan-2-yl]oxy-5-hydroxy-6-methyloxan-2-yl]oxy-3-[(1 S,3S,4R)-3,4-dihydroxy-1-methoxy-2-oxopentyl]-6-[(2S,4R,5R,6R)-4-[(2S,4R,5S,6R)-4,5-dihydroxy-6-methyloxan-2-yl]oxy-5-hydroxy-6-methyloxan-2-yl]oxy-8,9-dihydroxy-7-methyl-3,4-dihydro-2H-anthracen-1-one]
IC50 (A673): 12.4 nM
Rad51 protein expression (Rad51): Down-regulated
body weight in tumor-bearing mice [1]: no loss of body weight was observed
survival, range [1]: 12 to 35 days
median survival ([1]; days for tumor to grow from 200 to 1500 mm^3): 20 days
toxicity by serum chemistry or hematology studies (Female C57BL/6J mice; 5 consecutive days i.p. 1 mg/kg): no significant toxicity
death (Female C57BL/6J mice; 5 consecutive days i.p. 4 mg/kg): One mouse died
body weight (Female C57BL/6J mice; 5 consecutive days i.p. 4 mg/kg (p=0.0016)): progressive and significant body weight loss
morbidity (Female C57BL/6J mice; 5 consecutive days i.p. 4 mg/kg, day of harvest (day 6)): one mouse found to be moribund
outward signs of morbidity or toxicity (Female C57BL/6J mice; five i.v. injections on alternating days, 1 mg/kg or 2 mg/kg): no obvious outward signs of morbidity or toxicity
body weight (Female C57BL/6J mice; single i.p. injection, 1 mg/kg and 4 mg/kg, vs saline vehicle): no significant weight loss
toxicity by serum chemistry or hematology assays (Female C57BL/6J mice; single i.p. injection, 1 or 2 mg/kg): did not cause any toxicity
body weight (Female C57BL/6J mice; single i.v. 4 mg/kg, in comparison to equivalent dose of MANP (p=0.048)): significant decrease
death rate (Female C57BL/6J mice; [2]): 75%
mice that died (Female C57BL/6J mice; [2]): 6/8
